# Values quoted from earlier work in patent publication US20210353650A1 (priority 2020, published 2021).
# Columns and labels:
# [1] = tested on: Vero African green monkey kidney epithelial cells; conditions: Vero cells used in the CPE assay; 2012 study
# [2] = nonhuman primates, daily administration of 10 mg/kg; EMA 2020
# [3] = tested on: Vero E6 cells
smiles,measurement,setting,value
CCC(CC)COC(=O)[C@H](C)N[P@](=O)(OC[C@H]1O[C@@](C#N)(c2ccc3c(N)ncnn23)[C@H](O)[C@@H]1O)Oc1ccccc1 [Remdesivir],cytotoxicity toward host cells,[1],without causing cytotoxicity
same,intracellular levels of the triphosphate form,[2],sustained intracellular levels
same,cytotoxic concentration,[3],> 100 mM
